According to PMC11080064, “Inositol Hexaphosphate as an Inhibitor and Potential Regulator of p47^phox Membrane Anchoring” (Biochemistry, 2024):
Entries after “also recorded” stand apart in the source; their conditions may differ.

Tests used:
[1] = target: T1, p47phox-PX (PX domain of p47phox, residues 1-128) (Homo sapiens, UniProt P14598); experiment: 1H-15N-HSQC NMR titration (chemical shift perturbation) of inositol phosphates; assay type: binding; settings: for Kd / binding observed by NMR (CSPs): 100 μM p47phox-PX; for Kd: pH 6.0, 25 °C, read-out: Kd (binding affinity, global fit of CSPs); for binding observed by NMR (CSPs): up to 64 mM
T1 construct: poly histidine tag (TEV cleavable) (cleaved yes); made in house; host or cells: E. coli BL21 (DE3)
T1 sequence (P14598 1-128): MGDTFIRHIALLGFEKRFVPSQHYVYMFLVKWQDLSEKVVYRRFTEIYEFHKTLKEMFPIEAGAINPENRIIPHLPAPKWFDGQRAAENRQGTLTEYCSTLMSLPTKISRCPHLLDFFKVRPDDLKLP
Procedure: All NMR samples were prepared with either ^15N- or ^15N–^13C-p47^phox-PX in 50 mM Bis-Tris (pH 6.0), 100 mM NaCl, 1 mM DTT, 0.02% (v/v) sodium azide and 10% D2O as a lock solvent. Protein concentration was typically 100 μM in each sample, as confirmed by the Bradford Assay. NMR experiments were collected on a 600 MHz Bruker AVANCE III equipped with a TXI triple resonance probe at 25 °C. NMR assignments of the PX domain were transferred from a previous publication,[24] then were confirmed, and expanded by collection of 3D HNCA, HN(CA)CB, and CBCA(CO)NH experiments on a 700 MHz Bruker AVANCE III at 25 °C.[41]−[43] Standard Bruker pulse sequences were used with the HNCA collected with 64 scans and 1024 × 40 × 48 total points, the HN(CA)CB collected with 64 scans and 1024 × 40 × 64 total points, and the CBCA(CO)NH collected with 32 scans and 1024 × 40 × 96 total points. NMR data was processed with NMRPipe[44] and analyzed using NMRFAM-Sparky.[45]
For NMR titrations, inositol phosphate stocks were prepared in the same NMR buffer, the IP6 stock was pH adjusted, and added in 0.25, 0.5, 2, and 4 to 1 mol equiv to the PX domain of p47^phox. Due to the high buffering capacity of IPs, pH values were checked during titrations and corrected as needed. ^1H–^15N-HSQC spectra were collected at each titration point, using a standard Bruker pulse sequence, collected with 2048 × 100 total points and 16 or 32 scans. Chemical shift perturbations (CSPs) were calculated using weighted chemical shifts in the following formula[46]: [drawing 1] where Δ^1H and Δ^15N represent the changes in the ^1H and ^15N chemical shifts for each resonance. To calculate the binding affinity of IPs to the PX domain of p47^phox, residues with ≥0.08 CSP at the highest titration point were fit to the following formula, which accounts for ligand depletion, on GraphPad Prism 10: [drawing 2] where CSP denotes the CSP of the individual residue at each IP concentration ([L]), Dmax represents the CSP at saturation, [P] represents the concentration of p47^phox-PX, and Kd represents the dissociation constant of p47^phox-PX and IP. The formula was initially fit to each residue individually and any residue with R^2 < 0.95 was removed before fitting the data globally to determine the overall binding affinity.

[2] = target: T2, p47phox-PX (Homo sapiens, UniProt P14598); experiment: Fluorescence polarization competition against BODIPY-PI(3,4)P2 tracer; assay type: binding
T2 construct: poly histidine tag (TEV cleavable) (cleaved yes); made in house; host or cells: E. coli BL21 (DE3)
T2 sequence (P14598 1-128): T1 sequence (P14598 1-128)
Procedure: All fluorescence polarization (FP) experiments were performed using BODIPY-FL diC6–PI(3,4)P2 [Echelon Biosciences (Salt Lake City, UT)] as the reporting tracer. […] Each sample contained 50 nM BODIPY-PI(3,4)P2 and was plated in triplicate on a black half area 96-well microplate [Corning (Corning, NY)]. The plate was centrifuged at 500 rpm for 30 s prior to analysis on a SpectraMax M5 [Molecular Devices (San Jose, CA)]. Measurements were taken using a monochromator with fixed excitation and emission wavelengths of 485 and 525 nm, respectively, and a cutoff of 515 nm. Raw data was converted to millipolarization (mP) using the SoftMax Pro software [Molecular Devices (San Jose, CA)]. mP values were then converted to anisotropy (A) using the following formula: [drawing 3]
A 2-fold dilution series of IP was performed, ranging from 50–0.05 μM IP in the presence of 2.5 μM p47^phox-PX and 50 nM BODIPY-PI(3,4)P2. Samples were plated in triplicate on a black half area microplate, centrifuged at 500 rpm for 30 s, and incubated for 1 h prior to analysis. The data was converted to anisotropy and fit to a four-parameter, variable slope, dose–response equation on GraphPad Prism 10. The IC50 from the dose–response equation was converted to an inhibitory constant (Ki) using a IC50-to-Ki calculator, which incorporated the following formula[47]: [drawing 5] where I50 and L50 are the free concentrations of IP and BODIPY-PI(3,4)P2, respectively, at 50% inhibition, and P0 is the free concentration of p47^phox-PX in the absence of IP.

[3] = target: T3, p47phox-PX binding to PI(3,4)P2-containing liposomes (Homo sapiens, UniProt P14598); experiment: Dansyl-PE liposome FRET assay of membrane anchoring; assay type: biochemical; settings: 2.5 μM p47phox-PX, 125 μM accessible lipid, 79:15:1:5 POPC:POPE:diC16-PI(3,4)P2:Dansyl-PE, pH 7.0, 1 mM MgCl2; read-out: apparent IC50 of inhibition of membrane anchoring
T3 construct: poly histidine tag (TEV cleavable) (cleaved yes); made in house; host or cells: E. coli BL21 (DE3)
T3 sequence (P14598 1-128): T1 sequence (P14598 1-128)
Procedure: To ensure proper liposome formation, phosphatidylinositol stocks were protonated prior to use adapted from a previously published protocol.[28] In brief, lyophilized PI(3,4)P2 lipids were resuspended in CHCl3 and dried under nitrogen. Lipids were then further dried under a speed vacuum for 1 h followed by a resuspension into 2:1:0.01 CHCl3: MeOH: 1 M HCl. The suspension was allowed to sit at room temperature for 15 min before the drying process was repeated. Lipids were then reconstituted in 3:1 CHCl3: MeOH and dried as above. The process was repeated with CHCl3 before a final resuspension into CHCl3 at the desired concentration and storage of protonated stocks at −80 °C. […]
The FRET assay was performed based on a previously published protocol,[48] where intrinsic tryptophan fluorescence within the PX domain was utilized as the donor fluorophore and Dansyl-PE incorporated within liposomes as the acceptor fluorophore. […] Samples were mixed for 40 s after each IP6 addition and were analyzed on an OLIS 14 TB NIR/CD Spectrophotometer [Olis (Bogart, GA)] equipped with a UV/vis photon counter 230–870 nm fluorescence detector. […] Each titration point measurement was integrated over 10 s and measured in triplicate. […]

[4] = target: T2, p47phox-PX; experiment: Fluorescence polarization direct binding of BODIPY-PI(3,4)P2 tracer; settings: 50 nM tracer, 10-0.02 μM protein, pH 7.0, 1 mM MgCl2
Procedure: All fluorescence polarization (FP) experiments were performed using BODIPY-FL diC6–PI(3,4)P2 [Echelon Biosciences (Salt Lake City, UT)] as the reporting tracer. To determine the binding affinity of the fluorophore to p47^phox-PX, a series of 2-fold dilutions, ranging from 10–0.02 μM protein, were performed in 50 mM Bis-Tris (pH 7.0), 100 mM NaCl, 1 mM MgCl2, and 1 mM DTT. Each sample contained 50 nM BODIPY-PI(3,4)P2 and was plated in triplicate on a black half area 96-well microplate [Corning (Corning, NY)]. The plate was centrifuged at 500 rpm for 30 s prior to analysis on a SpectraMax M5 [Molecular Devices (San Jose, CA)]. Measurements were taken using a monochromator with fixed excitation and emission wavelengths of 485 and 525 nm, respectively, and a cutoff of 515 nm. Raw data was converted to millipolarization (mP) using the SoftMax Pro software [Molecular Devices (San Jose, CA)]. mP values were then converted to anisotropy (A) using the following formula: [drawing 3] […]

`O=P(O)(O)O[C@H]1[C@H](O)[C@@H](O)[C@H](OP(=O)(O)O)[C@@H](OP(=O)(O)O)[C@H]1O` [IP3, inositol (1,3,4) trisphosphate] gave a Kd ([1]; NMR titration) of 200 ± 50 µM.

Work on `O=P(O)(O)O[C@H]1[C@H](O)[C@@H](OP(=O)(O)O)[C@H](OP(=O)(O)O)[C@@H](OP(=O)(O)O)[C@H]1O` [IP4, inositol (1,3,4,5) tetrakisphosphate] yielded a Kd ([1]; NMR titration) of 100 ± 11 µM.

In the case of `O=P(O)(O)O[C@@H]1[C@@H](OP(=O)(O)O)[C@H](OP(=O)(O)O)[C@H](O)[C@H](OP(=O)(O)O)[C@H]1OP(=O)(O)O` [IP5, inositol (1,3,4,5,6) pentakisphosphate], the Kd ([1]; NMR titration) is reported as 58 ± 6 µM and the “competition with BODIPY-PI(3,4)P2 binding” value ([2]; up to 50 μM, 2.5 μM p47phox-PX, 50 nM tracer) is reported as “no apparent capacity to inhibit; also recorded: no significant observed competition”.

`O=P(O)(O)O[C@H]1[C@H](OP(=O)(O)O)[C@@H](OP(=O)(O)O)[C@H](OP(=O)(O)O)[C@@H](OP(=O)(O)O)[C@H]1OP(=O)(O)O` [IP6, inositol hexaphosphate] was tested, and the “approximate affinity inferred from intermediate-exchange line-broadening” value ([1]; NMR titration, line-broadening precluded Kd fit) was “low-μM or lower affinity”, the Ki ([2]; 2.5 μM p47phox-PX, 50 nM BODIPY-PI(3,4)P2, pH 7.0, 1 mM MgCl2, read-out: Ki (inhibition constant, converted from IC50)) was 0.6 ± 0.2 µM and the “effect of lower pH on inhibition / Ki” value ([2]; pH 6 with 1 mM MgCl2, compared to pH 7.0) was “no significant change in Ki; also recorded: only a minor effect”. For the same molecule, the “effect of absence of MgCl2 on inhibition / Ki” value ([2]; pH 6 with no MgCl2) was “no significant change in Ki; also recorded: little to no effect” and the IC50 [3] was 1.3 ± 0.3 µM.

In the case of `O[C@H]1[C@H](O)[C@@H](O)[C@H](O)[C@@H](O)[C@H]1O` [Inositol], the “binding observed by NMR (CSPs)” value [1] is reported as “no significant CSPs were observed” and the “binding observed by NMR (CSPs)” value ([1]; listed as inositol) is reported as “no significant binding”.

`O=P(O)(O)OC1[C@H](O)[C@H](O)C(O)[C@H](O)[C@H]1O` (stereo partly shown) [inositol-1-phosphate] showed a Kd ([1]; NMR titration) of 870 ± 120 µM.

With “BODIPY-FL diC6–PI(3,4)P2 [BODIPY-PI(3,4)P2]” the Kd [4] was 0.35 ± 0.05 µM.
